Measured values as given in patent publication US20090325960A1, “METHOD FOR TREATING INFLAMMATORY DISEASES USING RHO KINASE INHIBITOR COMPOUNDS” (priority 2008, published 2009).
Like-named read-outs stand apart in the source and are kept apart here.

Assays:
[1] = test system: ova-sensitized, ova-challenged BALB/c mice; experiment: In vivo anti-inflammatory activity, mouse ovalbumin sensitization model (BALF cells and cytokines); conditions: for airway eosinophil infiltration (eosinophils per ml of BALF): dosed orally to day 31, anti-inflammatory dosing paradigm
Description: Upon arrival, the animals were randomized into groups of five males per cage and assigned to a dosing group. Animals were quarantined for 7 days under test conditions. […] Animals were sensitized on day 0 and 14 of study by an intraperitoneal injection with 20 μg of ovalbumin (ova) and 2.0 mg aluminum hydroxide (alum) which initiates the development of a specific T-helper (Th) cells type 2 resulting in asthmatic animals (denoted as Ova in the fugures). One group of animals received an injection of saline to use as control animals (denoted as normal in the figures). […] Aerosol challenge consists of using an Aerogen Aeroneb nebulizer and controller with a particle size of 4-6 μm mass median aerodynamic diameter (MMAD) with a distribution of 400 μl per minute. This aerosol challenge is necessary to target the Th2-driven allergic inflammation in the lower airways.
The anti-inflammatory dosing paradigm (FIG. 5) was utilized to evaluate the anti-inflammatory effects of experimental compounds. […] On day 32 of the experiment, after measurement of airway hyperreactivity, BALF was collected and all animals were anesthetized, bled and euthanized.
Bronchoalveolar lavage fluid (BALF) was collected by infusing 3.0 ml of saline with 10% fetal calf serum into the lungs via the trachea and then withdrawing the fluid. The total amount of cells/ml of BALF fluid was determined via manual cell count on hemocytometer. The BALF was centrifuged, supernatant removed and analyzed for cytokine concentrations as described below, and cell pellet reconstituted in 500 μL of fluid. Cytospin slides were prepared from the cell pellet using 100 μL of fluid and spinning samples for 5 minutes at 5000 rpms in a cytospin centrifuge, Following Hema3 stain, relative percentages of individual leukocytes were determined on a 200 cell count for each sample. The final concentration of individual leukocyte cell types per ml of BALF was determined by multiplication of the relative percentage of individual leukocytes with the total amount of cells/ml of BALF fluid.
The concentrations of cytokines in the BALF samples were determined using commercially available Bio-plex kits (Bio-Rad) for the detection of mouse IL-5, IL-13, and Eotaxin. The analysis of cytokine levels was measured using the Bio-Plex 200 (Bio-Rad) system according to the manufacturer's instructions.

[2] = test system: ova-sensitized, ova-challenged BALB/c mice; experiment: Prevention of airway hyperreactivity (Penh, methacholine) in mouse ovalbumin sensitization model; format: in vivo; conditions: for airway hyperreactivity: intratracheal once a day; for airway hyperreactivity to metacholine on Day 32: oral 15 μMol/kg once a day
Description: The anti-inflammatory dosing paradigm consists of dosing the animals once a day starting on day 27 and finishing on either day 30 or 31 (1 hr prior to the aerosolized ovalbumin challenges on days 28 to 30) but not on day 32 when hyperreactivity evaluation occurs. […] Exposure to the methacholine doses consisted of a 3 minute period during which a nebulizer was aerosolizing the methacholine and an additional 3 minute period following the cessation of nebulization. […] Enhanced pause (Penh), a unitless index of airway hyperreactivity, is derived from the expiratory side of the respiratory waveform measured via the plethysmograph and is used as an indirect measure of airway resistance and hyperreactivity. […] Following the methacholine dose response, BALF was collected and all animals were anesthetized, bled and euthanized. […] The Penh value at each of the dose levels of methacholine represents the 6-minute average response. Change from baseline (CFB) in Penh was calculated at each methacholine dose and the area under the curve (AUC) for these CFB values was calculated using the trapezoidal rule. This same approach was applied for each mouse across multiple experiments. […] Data from equal experimental conditions across experiments performed on different days were pooled for statistical analysis and data reporting. […] A random intercept for each experiment was assumed to account for possible similarities of the results obtained from a given experiment (i.e., as a “blocking effect”). […] For FIG. 11, linear AUC values from compound treated mice were reported as a percent of linear AUC values from vehicle-treated ovalbumin-sensitized/ovalbumin-challenged (asthmatic) mice.

[3] = test system: cytokine secretion from LPS-stimulated human monocytes; experiment: Human monocyte cytokine secretion assay (LPS-stimulated); format: cell-based
Description: Peripheral blood from healthy human volunteers was collected and the monocytes isolated via Ficoll-paque density centrifugation. […] The cells were allowed to pre-incubate with test compound at the indicated concentration for 30 minutes (37° C., 5% CO2, humidified air); after which the supernatant was removed and media containing compound and 1 ng/mL LPS was added. Cells were allowed to incubate with compounds and LPS for 4 hours at 37° C. after which the supernatant was removed and stored at −80° C. Cytokine concentrations in the supernatant were determined using commercially available Bio-Rad Bio-Plex™ kits according the manufacturer's instructions.

[4] = test system: LPS-challenged BALB/c mice; experiment: LPS-induced neutrophilia and cytokine production assay; format: in vivo, mouse; conditions: for IL-1β levels in BALF: intratracheal administration, LPS-challenged animals
Description: Male BALB/c mice, approximately 19 to 21 grams, were ordered from Charles River Laboratories (Raleigh, N.C.). All animals were challenged with aerosolized LPS (10 μg/ml) for 25 minutes on study day 0. LPS aerosol was generated using an Aerogen Aeroneb nebulizer and controller providing a flow of 400 μl/min and a particle size of 2-4 μm MMAD. Rolipram was administered i.p at 20 mg/kg. […] Four hours following LPS challenge, BALF was collected using a total of 3 ml of 0.9% sodium chloride containing 10% fetal calf serum. Total cell counts were determined using the Coulter Counter. For differential evaluations, BALF was centrifuged and cytospin slides prepared and stained with Hema3 stain. Manual leukocyte counts were then completed on 200 cells. The final concentration of individual leukocyte cell types per ml of BALF was determined by multiplication of the relative percentage of individual leukocytes with the total amount of cells/ml of BALF fluid. The concentration of IL-1β in the BALF samples was determined using commercially available Bio-plex kits (Bio-Rad). The analysis of cytokine levels was measured using the Bio-Plex 200 (Bio-Rad) system according to the manufacturer's instructions.

[5] = Rat oral pharmacokinetics (plasma); format: in vivo; conditions: rat oral PK, mean of n = 3 rats
Description: Plasma (EDTA K2 anticoagulant) was collected from male, cannulated, CD Sprague Dawley rats to determine the pharmacokinetics of formulations containing compound inhibitors of Rho kinase. Each animal was dosed orally with a 4 ml/kg solution or suspension of each test compound in 10 mM acetate buffered saline, pH 4.5 at a final concentration range of 20-30 mol/kg. Blood was collected at 0.25, 0.5, 1, 2, 4, 6, 8, and 24 hours. Plasma samples were assayed for the concentration of the test compound using an on-line, solid phase extraction LC/MS/MS analysis system.
Pharmacokinetic analyses were performed using WinNonlin software version 5.2 (Pharsight Corporation, Mountain View, Calif.).
As determined from the plasma concentration versus time curves, the time to peak and peak exposure are represented by the values Tmax and Cmax, respectively. The AUC values (nM*hr) shown were calculated as the areas under the plasma concentration versus time curves from time zero through the time of the last observable value and represent the total exposure of the compound over the course of the study. Half-life values or the amount of time required for the plasma levels of the compound to decline to half the initial value are represented as t1/2.

[6] = Compound concentrations in lungs of ova-sensitized mice post IP, PO and IT administration; format: in vivo; conditions: male, Balb/c, mouse, lung, other: intratracheal (IT), BD model, IT 5 μmol/kg, read-out: Lung, nM (plasma corrected lung concentration)
Description: Additionally, compound concentrations were determined in the plasma and lungs of male, ovalbumin-sensitized, Balb/c mice from a murine model of asthma. Test compounds were formulated in water or 1% polysorbate 80 and dosed at 15 μmol/kg for intraperitoneal (IP) or oral (PO) administration or formulated for intratracheal (IT) administration and dosed at 5 μmol/kg, which directly targets the lungs. Following completion of the in vivo study, mice were euthanized and blood and plasma collected approximately 2.5-3 hours post administration of test compound for bronchodialator (BD) studies and 24 hours post administration for anti-inflamatory (AI) studies. Lungs were homogenized in Matrix A lysing tubes using a FastPrep 24 tissue and cell homogenizer (MP Biomedicals, Solon, Ohio). Both plasma samples and lung extracts were assayed for compound concentrations using an on-line, solid phase extraction LC/MS/MS system. The actual lung tissue concentrations of each compound in mouse were extrapolated from the lung and plasma concentrations, data are shown in Table 11. The results of a set of experiments using unsensitized mice and collecting only plasma 15 minutes post administration of test compounds are shown in Table 12.

human neutrophils = experiment: Human neutrophil chemotaxis (fMLP-induced, Boyden chamber); format: cell-based; conditions: average
Description: Peripheral blood from healthy human volunteers was collected and the neutrophils were isolated by Ficoll-paque density centrifugation followed by dextran sedimentation and hypotonic lysis of the red blood cells. Neutrophil chemotaxis was assessed using a modified Boyden Chamber (Neuroprobe, 96-well) with a 3 μm pore polycarbonate membrane. The ability of the tested compounds to block chemotaxis induced by a 1 μM fMLP challenge during a one hour incubation at 37° C. with 5% CO2 was assessed in a dose response manner.

[7] = test system: A-10 rat thoracic aorta cells; experiment: PDGF-stimulated smooth muscle cell proliferation assay (BrdU incorporation); format: cell-based; conditions: average percent of PDGF stimulated proliferation at 1 μM test compound
Description: Effects on cell proliferation were measured using a bromodeoxyuridine (BrdU) incorporation assay. […] Serum free media containing 0.1% BSA was added to the cells. 24 hours later the media was removed and replaced with warmed serum free media. […] Proliferation was then monitored using the BrdU Cell Proiferation Assay, HTS (Calbiochem cat. # HTS01). BrdU was allowed to incorporate into cells for 24 hours prior to the addition of fixative/denaturing solution and the fluorometric detection of incorporated BrdU using a BrdU antibody as per manufacturer's directions. Data are reported as a percent of the PDGF-stimulated BrdU incorporation.

Mnk2 = target: T1, Mnk2 (Homo sapiens, UniProt Q9HBH9); format: biochemical
T1 construct: purchased Upstate, Millipore Bioscience Division (KinaseProfiler service)
T1 sequence (Q9HBH9 whole entry): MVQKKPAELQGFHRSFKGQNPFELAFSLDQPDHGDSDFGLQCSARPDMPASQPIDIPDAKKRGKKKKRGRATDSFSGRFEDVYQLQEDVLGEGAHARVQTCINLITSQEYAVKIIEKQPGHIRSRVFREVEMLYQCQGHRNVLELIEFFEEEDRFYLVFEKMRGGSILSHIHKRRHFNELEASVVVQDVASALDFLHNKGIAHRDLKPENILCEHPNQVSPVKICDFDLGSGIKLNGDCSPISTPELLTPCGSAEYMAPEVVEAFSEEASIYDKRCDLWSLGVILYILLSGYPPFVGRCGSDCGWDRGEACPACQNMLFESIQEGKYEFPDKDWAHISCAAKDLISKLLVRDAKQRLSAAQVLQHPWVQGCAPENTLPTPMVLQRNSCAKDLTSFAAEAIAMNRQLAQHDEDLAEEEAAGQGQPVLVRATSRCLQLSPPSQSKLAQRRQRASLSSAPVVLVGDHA
Description: (§1) Compounds of Formulae I and II were examined for activity against a selected panel of kinases using the KinaseProfiler™ enzyme profiling services (Upstate, Millipore Bioscience Division). Percent kinase activity at 10 μM and 1 μM test compound and 10 μM ATP was determined against 40 wild-type recombinant human kinases according to Upstate's standard protocol: ASK1, BTK, CSK, c-RAF, GCK, GSK3β, IKKα, IKKβ, IRAK1, IRAK4, JNK1α1, JNK2α2, JNK3, ERK1, ERK2, MAPKAP-K2, MAPKAP-K3, MEK1, MKK4, MKK6, MKK7β, Mnk2, MSK1, PAK3, PDK1, PRAK, ROCK1, Rsk2, SAPK2a, SAPK2b, SAPK3, SAPK4, SRPK1, SRPK2, Syk, TAK1, TBK1, PI3-Kβ, PI3-Kγ, PI3-Kδ.

murine eosinophils = experiment: Murine eosinophil chemotaxis (eotaxin-induced); format: cell-based, mouse; conditions: 10 nM eotaxin challenge
Description: Mouse Eosinophil Isolation: Bronchoalveolar lavage was collected from ovalbumin sensitized and challenged mice in a volume of 2.5 mL lavage buffer. The lavage buffer was 0.9% saline with 10% fetal bovine serum. The pooled lavages were maintained on ice until use. The murine eosinophils were isolated using MACS cell separation (Miltenyi Biotech) by depletion of B cells and T cells by positive selection following incubation with antibody conjugated magnetic beads specific for CD45-R (B220) and CD90 (Thy 1.2), which bind B cells and T cells, respectively.
(§2) In Vitro Chemotaxis: Eosinophil chemotaxis was assessed using a modified Boyden Chamber (Neuroprobe, 96-well) with a 5 μm pore membrane. The ability of the tested compounds to block chemotaxis induced by a 10 nM eotaxin challenge (mouse) or 1 nM eotaxin challenge (human) during one hour incubation at 37° C. with 5% CO2 was assessed.

human eosinophils = experiment: Human eosinophil chemotaxis (eotaxin-induced); format: cell-based; conditions: 1 nM eotaxin challenge
Description: Human Eosinophil Isolation: Peripheral blood from healthy human volunteers was collected and the PMNs separated via Ficoll-paque density centrifugation followed by hypotonic lysis of the red blood cells. Subsequently, the human eosinophils were isolated from the cell suspension via StemCell Technologies Human Eosinophil Enrichment kit (Cat. No 19256) according to the manufacturer's recommendations. Briefly, unwanted cells were specifically labeled with dextran-coated magnetic nanoparticles using bispecific Tetrameric Antibody Complexes (TAC) directed against cell surface antigens on human blood cells: CD2, CD3, CD14, CD16, CD19, CD20CD36, CD56, CD123, glycophorin A and dextran. The unwanted cells are then separated from the unlabelled eosinophils using the EasySep® magnetic isolation procedure.
as §2

ERK1 = target: T2, ERK1 (Homo sapiens, UniProt P27361); experiment: Kinase panel screen (KinaseProfiler), ERK1; format: biochemical; conditions: 1 μM test compound, 10 μM ATP
T2 construct: purchased Upstate, Millipore Bioscience Division (KinaseProfiler service)
T2 sequence (P27361 whole entry): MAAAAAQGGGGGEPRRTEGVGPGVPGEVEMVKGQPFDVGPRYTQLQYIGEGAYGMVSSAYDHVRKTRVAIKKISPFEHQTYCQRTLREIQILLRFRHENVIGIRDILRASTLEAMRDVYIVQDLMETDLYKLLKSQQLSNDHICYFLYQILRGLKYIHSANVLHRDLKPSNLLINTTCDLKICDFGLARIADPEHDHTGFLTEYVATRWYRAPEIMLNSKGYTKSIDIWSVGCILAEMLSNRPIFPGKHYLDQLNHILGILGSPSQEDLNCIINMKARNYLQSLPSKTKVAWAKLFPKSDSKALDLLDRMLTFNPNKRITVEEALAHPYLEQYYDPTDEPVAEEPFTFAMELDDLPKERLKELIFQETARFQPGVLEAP
Description: as §1

ERK2 = target: T3, ERK2 (Homo sapiens, UniProt P28482); experiment: Kinase panel screen (KinaseProfiler), ERK2; format: biochemical; conditions: 1 μM test compound, 10 μM ATP; read-out: Percent inhibition ERK2 at 1 μM
T3 construct: purchased Upstate, Millipore Bioscience Division (KinaseProfiler service)
T3 sequence (P28482 whole entry): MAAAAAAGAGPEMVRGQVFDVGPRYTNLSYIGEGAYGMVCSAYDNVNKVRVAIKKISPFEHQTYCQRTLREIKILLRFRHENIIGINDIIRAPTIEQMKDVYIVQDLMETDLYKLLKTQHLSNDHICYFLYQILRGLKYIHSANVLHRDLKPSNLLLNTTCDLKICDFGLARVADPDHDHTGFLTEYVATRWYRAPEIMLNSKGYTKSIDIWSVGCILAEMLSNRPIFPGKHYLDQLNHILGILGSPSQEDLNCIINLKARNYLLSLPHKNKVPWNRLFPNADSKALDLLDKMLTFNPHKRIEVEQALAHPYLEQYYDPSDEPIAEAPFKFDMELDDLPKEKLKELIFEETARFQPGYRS
Description: as §1

[8] = test system: monocytes, endothelial cells, and lymphocytes; conditions: cited from earlier work
[9] = test system: VEGF-induced angiogenesis; conditions: 100 μM; cited from earlier work
[10] = 15 μmol/kg/oral on days 27 to 31

CS(=O)(=O)Nc1cccc(CN2CCC[C@H](Nc3ccc4[nH]ncc4c3)C2)c1 [Compound 1.091, (S)-N-(3-((3-(1H-indazol-5-ylamino)piperidin-1-yl)methyl)phenyl)methanesulfonamide]
eosinophil influx (BALF) ([1]; dosed i.t. to day 30, anti-inflammatory dosing paradigm): reduction of eosinophils
airway hyperreactivity ([2]; days 27 to 30): prevention of airway hyperreactivity
activity at 10 µM ([3]; 10 μM of test compound, 1 ng/mL LPS, 4 hours, read-out: IL-1β % (Percent inhibition values for inhibition of cytokine secretion)): 166%
IL-1β levels in BALF [4]: reduction in IL-1β
LPS-induced pulmonary neutrophilia influx (BALF) ([4]; intratracheal dosing one hour prior to LPS challenge): significant reduction
Cmax [5]: BLQ
Tmax [5]: BLQ
Vz_F [5]: BLQ
t½ [5]: BLQ
AUC (0-last) ([5]; time zero through last observable value): BLQ
concentration at 2.5 h [6]: 123 nM

CS(=O)(=O)Nc1cccc(CN2CCC[C@@H](Nc3ccc4[nH]ncc4c3)C2)c1 [Compound 1.093, (R)-N-(3-((3-(1H-indazol-5-ylamino)piperidin-1-yl)methyl)phenyl)methanesulfonamide]
IC50 (human neutrophils): 363 µM

c1cc2cc(CN3CCC[C@@H](Nc4ccc5[nH]ncc5c4)C3)ccc2o1 [Compound 1.131, (R)-N-(1-(benzofuran-5-ylmethyl)piperidin-3-yl)-1H-indazol-5-amine]
airway eosinophil infiltration (eosinophils per ml of BALF) [1]: reduced
airway hyperreactivity to metacholine on Day 32 ([2]; days 27 to 31): prevention of airway hyperreactivity
Vz_F [5]: 6.8 L/kg

Cc1ccc(CN2CCC[C@@H](Nc3ccc4[nH]ncc4c3)C2)cc1OCCO [Compound 1.161, (R)-2-(5-((3-(1H-indazol-5-ylamino)piperidin-1-yl)methyl)-2-methylphenoxy)ethanol]
airway hyperreactivity ([2]; days 27 to 31): prevention of airway hyperreactivity
Proliferation at 1 μM [7]: 50.0%
Percent inhibition Mnk2 at 1 μM (Mnk2): 108

NC(=O)Cn1ccc2cc(CN3CCC[C@@H](Nc4ccc5[nH]ncc5c4)C3)ccc21 [Compound 1.162, (R)-2-(5-((3-(1H-indazol-5-ylamino)piperidin-1-yl)methyl)-1H-indol-1-yl)acetamide]
Percent inhibition Mnk2 at 1 μM (Mnk2): 111

CS(=O)(=O)Nc1cccc(CN2CC[C@@H](Nc3cccc4cnccc34)C2)c1 [Compound 2.038, (R)-N-(3-((3-(isoquinolin-5-ylamino)pyrrolidin-1-yl)methyl)phenyl)methanesulfonamide]
inhibition of eotaxin-induced murine eosinophil chemotaxis (murine eosinophils): inhibited
inhibition of eotaxin-induced human eosinophil chemotaxis (human eosinophils): inhibited
concentration of Eotaxin in BALF [1, 10]: reduced levels
concentration of IL-5 in BALF [1, 10]: reduced levels
concentration of IL-13 in BALF [1, 10]: reduced levels
airway eosinophil infiltration (eosinophils per ml of BALF) [1]: reduced
airway hyperreactivity to metacholine on Day 32 ([2]; days 27 to 31): prevention of airway hyperreactivity

NC(=O)Cn1ccc2cc(CN3CC[C@@H](Nc4cccc5cnccc45)C3)ccc21 [Compound 2.059, (R)-2-(5-((3-(isoquinolin-5-ylamino)pyrrolidin-1-yl)methyl)-1H-indol-1-yl)acetamide]
airway hyperreactivity ([2]; days 27 to 31): prevention of airway hyperreactivity
activity at 10 µM ([3]; read-out: IL-6 % (Percent inhibition values for inhibition of cytokine secretion), 10 μM of test compound, 1 ng/mL LPS, 4 hours): 0%
IL-1β levels in BALF [4]: reduction in IL-1β
Percent inhibition at 1 µM (ERK1): ~50%
activity at 1 µM (ERK2): ~50%
Percent inhibition Mnk2 at 1 μM (Mnk2): 49

OCCn1ccc2cc(CN3CC[C@@H](Nc4cccc5cnccc45)C3)ccc21 [Compound 2.066, (R)-2-(5-((3-(isoquinolin-5-ylamino)pyrrolidin-1-yl)methyl)-1H-indol-1-yl)ethanol]
airway hyperreactivity ([2]; days 27 to 31): prevention of airway hyperreactivity
Percent inhibition at 1 µM (ERK1): ~50%
activity at 1 µM (ERK2): ~50%
Percent inhibition Mnk2 at 1 μM (Mnk2): 99

C[C@@H](N)[C@H]1CC[C@H](C(=O)Nc2ccncc2)CC1 [Compound Y-27632]
expression of IL-1β, TNFα, and various other cytokines [8]: suppress expression

O=S(=O)(c1cccc2cnccc12)N1CCCNCC1 [Fasudil]
new vessel formation [9]: new vessel formation was prevented
expression of IL-1β, TNFα, and various other cytokines [8]: suppress expression
